Key:
[1] = biological target: T1, full-length human PDE4D5 isozyme (Homo sapiens, UniProt Q08499); experiment: PDE4 IC50 determination by Scintillation Proximity Assay, PDE4D5; format: biochemical; conditions: Table 1B, Formula I compounds; read-out: IC50 PDE4D5
T1 construct: The full-length human PDE4D5 isozyme; His6 (N); TEV cleavage site (N); made in house; host or cells: baculovirus infected insect cells (unpurified lysate)
How it was run: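 Unpurified His6-tagged full-length human PDE4D5 from baculovirus-infected insect cell lysate, 0.083 μl glycerol stock/ml, hydrolysed [3H]cAMP in Tris pH 7.5/MgCl/EGTA buffer, 30 min at 30°. ZnSO4/SPA beads stop; [3H]AMP counted. Controls: DMSO and roflumilast; 11-point duplicate curves, nonlinear-regression IC50.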

[2] = biological target: T2, PDE4B: The catalytic domain of human PDE4B from S152-S528 (Homo sapiens, UniProt Q07343); experiment: PDE4 IC50 determination by Scintillation Proximity Assay, PDE4B; format: biochemical; conditions: Table 1B, Formula I compounds; read-out: IC50 PDE4B
T2 construct: His6 (N); thrombin cleavage site (N); made in house; host or cells: E. coli
How it was run: (§1)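 Scintillation counts reflected [^3H]AMP captured on yttrium silicate SPA beads after enzyme hydrolysed [^3H]cAMP for 30 min at 30°. PDE4B was used at 80 ng/ml and PDE4D at 4 ng/ml. IC50 values came from non-linear regression.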

[3] = biological target: T3, full-length human PDE4B2 isozyme (Homo sapiens, UniProt Q07343); experiment: PDE4 IC50 determination by Scintillation Proximity Assay, PDE4B2; format: biochemical; conditions: Table 1B, Formula I compounds; read-out: IC50 PDE4B2
T3 construct: The full-length human PDE4B2 isozyme; His6 (N); TEV cleavage site (N); made in house; host or cells: baculovirus infected insect cells (unpurified lysate)
How it was run: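 Unpurified His6-TEV-tagged full-length human PDE4B2 from baculovirus-infected insect cell lysate (2.5 μl of 50% glycerol stock/ml) hydrolysed [3H]cAMP in 50 mM Tris pH 7.5, 8.3 mM MgCl, 1.7 mM EGTA, 0.01% BSA for 30 min at 30°. Stopped with SPA beads in 18 mM ZnSO4; [3H]AMP scintillation counted, IC50 by non-linear regression.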

[4] = tested on: TNF alpha production in LPS-stimulated human blood (Buffy coat); experiment: TNF alpha production by stimulation with LPS in whole blood cultures; format: cell-based; conditions: Homo sapiens; Table 1B, Formula I compounds; read-out: IC50 h TNFα
Experimental: Compounds were assayed to generate IC50 numbers as described in Example 54, using the following assay protocol (see Tables 3B and 4B for compounds and results).
Protocol • 1) Obtained 20 mM DMSO aliquots of desired concentrations of compounds (see Tables 3B and 4B for compounds tested and results). Placed 2 μl/well compound in DMSO in the top row of the dilution plate. Added 98 μl of RPMI 1640 media w/2.5% heat inactivated FBS.
2) Made the same media with 2% DMSO in it. Added 60 μl/well to well to make compound titration. Took 30 μl of top row and did a 1:3 dilution down the plate. In column 11 added 4 wells of 50 μM roflumilast and piclamilast. In column 12 added 2% DMSO media.
3) Transfered 20 μl/well into assay plates in duplicate.
4) Obtained human Buffy coat.
5) Diluted blood with 7 volumes of RPMI 1640 media with 1% P/S and 2.5% heat inactivated FBS (a 1:8 dilution)
6) Added160 μl/well of diluted blood to the assay plates.
7) Incubated for 1 hour at 37 degrees 5% CO2
8) Diluted LPS (which was already diluted to 1 mg/ml in PBS, 20 μl aliquots frozen −20 C.) to 10× desired final concentration to make a […] dilution (final concentration should be 100 ng/ml).
9) After 1 hour incubation added 20 μl/well of LPS to plates. A non-LPS treated background was also prepared. Samples were put on the shaker for a one minute 900 rpm.
10) Incubated for 4 hours in incubator.
11) After incubation, put on the shaker for a one minute 900 rpm and spun plate at 100 g for 10 minutes, Decel 5.
12) Carefully pipetted the top 75 μl supernatant into a new plate. Samples were frozen as needed.
Biosource hu-TNF ALPHA ELISA
• REAGENTS USED • DPBS 10×: VWR45000-428 (dilute 1:10 with Millipore Water) • TWEEN 20: FISHER BP337-500 • CAPTURE AND DETECTION ANTIBODIES: R&D DY510E • STREP-HRP: Biosource part SNN4004X • COLOR REAGENTS: R&D DY994 • STOP SOLUTION: from chemistry, or R&D DY999 • 1) Thawed samples to RT as needed. • 2) Added 50 μl Incubation buffer/well. • 3) Added 50 μl blood samples +50 μl Diluent buffer • 4) Incubated 2 hours at room temp. • 5) Washed the plate 4× with 300 μl/well wash buffer with microfill. Wash buffer was DPBS with 0.05% Tween pH 7.2-7.4 • 6) Added 100 μl biotinylated anti-TNFalpha • 7) Incubateed 1 hours at room temp. • 8) Washed the plate 4× with 300 μl/well wash buffer with microfill. Wash buffer was DPBS with 0.05% Tween pH 7.2-7.4 • 9) Added^100 μl Streptavidin-HRP working solution • 10) Incubated for 30 minutes at room temp. • 11) Washed the plate 4× with 300 μl/well wash buffer with microfill. Wash buffer was DPBS with 0.05% Tween pH 7.2-7.4 • 12) Added 100 μl Chromagen • 13) Incubated in the dark for 30 minutes until the blue color developed satisfactorily. • 14) Added 100 μl/well stop solution (2 N H2SO4). • 15) Read plate on WallacVictor at 450 nm for 0.1 sec/well

PDE4D = biological target: T4, PDE4D (Homo sapiens, UniProt Q08499); experiment: PDE4 IC50 determination by Scintillation Proximity Assay, PDE4D; format: biochemical; conditions: Table 1B, Formula I compounds; read-out: IC50 PDE4D
T4 construct: PDE4D: The catalytic domain of human PDE4B from S3 16-V692; His6 (N); thrombin cleavage site (N); made in house; host or cells: E. coli
How it was run: as §1

T1 sequence (Q08499 1-745 isoform Q08499-6): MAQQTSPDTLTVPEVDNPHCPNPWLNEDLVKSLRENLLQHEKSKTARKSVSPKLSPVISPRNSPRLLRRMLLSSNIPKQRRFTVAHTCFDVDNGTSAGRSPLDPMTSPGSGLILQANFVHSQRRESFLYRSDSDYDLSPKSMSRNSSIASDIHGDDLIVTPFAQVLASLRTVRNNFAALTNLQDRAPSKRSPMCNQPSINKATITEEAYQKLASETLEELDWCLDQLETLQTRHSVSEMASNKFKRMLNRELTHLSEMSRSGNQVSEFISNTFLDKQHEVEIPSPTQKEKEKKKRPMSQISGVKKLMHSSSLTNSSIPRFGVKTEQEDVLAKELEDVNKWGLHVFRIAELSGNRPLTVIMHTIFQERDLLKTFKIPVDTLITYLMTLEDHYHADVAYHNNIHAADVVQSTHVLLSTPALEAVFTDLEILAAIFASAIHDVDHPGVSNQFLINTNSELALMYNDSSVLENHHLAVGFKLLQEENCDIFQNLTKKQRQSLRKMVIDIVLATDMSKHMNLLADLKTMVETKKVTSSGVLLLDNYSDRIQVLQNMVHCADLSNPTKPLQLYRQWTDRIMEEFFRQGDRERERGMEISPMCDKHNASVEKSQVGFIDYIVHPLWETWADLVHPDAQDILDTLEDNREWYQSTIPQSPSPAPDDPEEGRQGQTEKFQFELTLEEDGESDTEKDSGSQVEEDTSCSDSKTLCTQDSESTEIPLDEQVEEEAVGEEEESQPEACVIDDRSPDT
T4 sequence (Q08499 380-756): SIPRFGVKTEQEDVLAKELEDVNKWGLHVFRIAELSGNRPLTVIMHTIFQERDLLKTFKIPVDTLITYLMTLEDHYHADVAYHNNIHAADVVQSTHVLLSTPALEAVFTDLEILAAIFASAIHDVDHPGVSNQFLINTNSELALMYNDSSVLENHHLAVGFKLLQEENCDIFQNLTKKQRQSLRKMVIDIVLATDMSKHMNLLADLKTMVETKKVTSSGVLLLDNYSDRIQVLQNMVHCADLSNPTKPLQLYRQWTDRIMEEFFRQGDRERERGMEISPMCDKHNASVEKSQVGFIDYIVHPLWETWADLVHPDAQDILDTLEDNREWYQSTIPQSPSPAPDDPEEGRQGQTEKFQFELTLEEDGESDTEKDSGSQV
T3 sequence (Q07343 1-564 isoform Q07343-2): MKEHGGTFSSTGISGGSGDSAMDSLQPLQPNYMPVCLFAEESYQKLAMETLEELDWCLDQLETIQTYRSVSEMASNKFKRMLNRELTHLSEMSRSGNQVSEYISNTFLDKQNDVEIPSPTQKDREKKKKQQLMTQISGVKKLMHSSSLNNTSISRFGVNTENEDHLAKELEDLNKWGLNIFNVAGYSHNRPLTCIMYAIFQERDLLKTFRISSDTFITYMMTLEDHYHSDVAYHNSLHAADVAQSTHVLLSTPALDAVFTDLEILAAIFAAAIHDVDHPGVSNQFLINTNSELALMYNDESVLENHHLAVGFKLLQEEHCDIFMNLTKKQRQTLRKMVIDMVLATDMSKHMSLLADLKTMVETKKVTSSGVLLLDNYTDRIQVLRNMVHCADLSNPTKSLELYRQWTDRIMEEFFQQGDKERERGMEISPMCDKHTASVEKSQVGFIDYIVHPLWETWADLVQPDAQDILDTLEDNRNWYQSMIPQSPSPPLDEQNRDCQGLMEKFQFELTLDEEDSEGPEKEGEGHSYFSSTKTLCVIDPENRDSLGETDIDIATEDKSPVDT
T2 sequence (Q07343 with tags, fused parts or gaps): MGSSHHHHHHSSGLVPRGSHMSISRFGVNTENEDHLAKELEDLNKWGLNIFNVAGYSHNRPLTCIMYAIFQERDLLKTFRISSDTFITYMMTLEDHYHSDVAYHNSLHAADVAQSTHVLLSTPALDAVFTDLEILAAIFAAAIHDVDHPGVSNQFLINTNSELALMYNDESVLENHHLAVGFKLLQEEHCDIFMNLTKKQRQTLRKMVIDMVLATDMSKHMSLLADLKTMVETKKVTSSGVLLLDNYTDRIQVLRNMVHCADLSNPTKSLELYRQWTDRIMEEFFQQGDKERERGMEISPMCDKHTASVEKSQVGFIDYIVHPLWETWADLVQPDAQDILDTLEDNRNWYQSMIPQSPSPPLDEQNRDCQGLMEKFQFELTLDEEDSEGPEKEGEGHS

SMILES: CC(C)CNc1sc(C(=O)c2cc(-c3ccc(Cl)c(Cl)c3)no2)c(N)c1C(N)=O [Compound 1-245, 4-Amino-5-[3-(3,4-dichloro-phenyl)-isoxazole-5-carbonyl]-2-isobutylamino-thiophene-3-carboxylic acid amide]
- IC50 [1]: < 10 µM
- IC50 [2]: < 10 µM
- IC50 [3]: < 10 µM
- IC50 [4]: < 10 µM
- IC50 (PDE4D): < 10 µM

SMILES: CCC(C)Nc1sc(C(=O)c2cc(-c3ccc(Cl)c(Cl)c3)no2)c(N)c1C#N (stereo not drawn) [Compound 1-247, 4-Amino-2-sec-butylamino-5-[3-(3,4-dichloro-phenyl)-isoxazole-5-carbonyl]-thiophene-3-carbonitrile]
- IC50 [1]: > 10 µM
- IC50 [2]: < 10 µM
- IC50 [3]: < 10 µM
- IC50 [4]: > 10 µM
- IC50 (PDE4D): > 10 µM

SMILES: N#Cc1c(NC2CCCC2)sc(C(=O)c2cc(-c3ccc(N)cc3)no2)c1N [Compound 1-250, 4-Amino-5-[3-(4-amino-phenyl)-isoxazole-5-carbonyl]-2-cyclopentylamino-thiophene-3-carbonitrile]
- IC50 [1]: < 10 µM
- IC50 [2]: < 10 µM
- IC50 [3]: < 10 µM
- IC50 [4]: > 10 µM
- IC50 (PDE4D): < 10 µM

SMILES: Cc1nc(-c2cnccn2)sc1C(=O)c1sc(NC2CCCC2)c(C(N)=O)c1N [Compound 1-252, 4-Amino-2-cyclopentylamino-5-(4-methyl-2-pyrazin-2-yl-thiazole-5-carbonyl)-thiophene-3-carboxylic acid amide]
- IC50 [1]: < 10 µM
- IC50 [2]: < 10 µM
- IC50 [3]: < 10 µM
- IC50 [4]: > 10 µM
- IC50 (PDE4D): < 10 µM

SMILES: NC(=O)c1c(NC2CCCC2)sc(C(=O)c2cc(-c3ccc(N)cc3)no2)c1N [Compound 1-253, 4-Amino-5-[3-(4-amino-phenyl)-isoxazole-5-carbonyl]-2-cyclopentylamino-thiophene-3-carboxylic acid amide]
- IC50 [1]: < 10 µM
- IC50 [2]: < 10 µM
- IC50 [3]: < 10 µM
- IC50 [4]: > 10 µM
- IC50 (PDE4D): < 10 µM

SMILES: CC(C)CNc1sc(C(=O)c2cc(-c3ccc(N)cc3)no2)c(N)c1C(N)=O [Compound 1-254, 4-Amino-5-[3-(4-amino-phenyl)-isoxazole-5-carbonyl]-2-isobutylamino-thiophene-3-carboxylic acid amide]
- IC50 [1]: < 10 µM
- IC50 [2]: < 10 µM
- IC50 [3]: < 10 µM
- IC50 [4]: < 10 µM
- IC50 (PDE4D): < 10 µM
